The text below walks through data of patent US9089572B2, “Inhibitors of p97” (California Institute of Technology, priority 2008, dated 2015).

For orientation: IC50 means the point on the concentration scale where inhibition reaches its midpoint. A low value points to greater potency. The term GI50 denotes the concentration giving 50% growth inhibition.

Experiment [1] deals with Hamster NSF (Cricetulus griseus, UniProt P18708). As to the kind of experiment: In vitro ATP hydrolysis, NSF. Format: biochemical. Here is the method:
(§1) To determine whether cysteine 522 is necessary for inhibition of p97 by compound 2, a mutant of p97 was constructed in which cysteine 522 was converted to either alanine (C522A-mp97) or threonine (C522T-mp97). The IC50 values of compound 2 were measured the against various enzymes during a 20-minute preincubation (see Table 2). Mutation of cysteine 522 in p97 to either alanine or threonine decreased sensitivity to compound 2 by greater than 100-fold. On the other hand, yeast Cdc48, which normally is quite resistant to compound 2, became nearly 30-fold more sensitive to the compound upon introduction of a cysteine in place of threonine 532.
To further address the specificity of inhibition by compound 2, its activity against two other AAA ATPases, NSF and the 26S proteasome, was assayed. Although NSF is known to be sensitive to thiol-reactive agents, it was more than 100-fold less sensitive to compound 2 than p97 (Table 2). […] The results with NSF and the 26S proteasome are noteworthy because both the active D1 domain of NSF and the Rpt3 subunit of the 26S proteasome have a cysteine in the position analogous to cysteine 522 of p97 (FIG. 3).

The test system of experiment [2] is MRC5-WT. As to the kind of experiment: CellTiter-Glo growth inhibition, parental MRC5 cells. Format: cell-based. To be noted: Homo sapiens, 48 h at 37° C., read-out: Cell line inhibition of growth GI50 MRC5-WT. A general note: In ATP-based viability assays light output follows the ATP content of the culture.
For experiment [3], the system named is HTC116 WT. Nature of the experiment: MTT cell growth assay, HTC116 WT. Particulars: 48 or 72 h, read-out: Cell line inhibition of growth GI50 HTC116 WT. It is filed as cell-based. Here is the method:
(§2) To probe further the effect of compound 2 and related compounds 1, 3, 5, 6 and 7, various concentrations of these compounds were added to 13 different cell lines and incubated for 48 or 72 h. An MTT assay was then performed to evaluate cell growth and survival.

Experiment [4] relates to CCRF-CEM. As to the kind of experiment: MTT cell growth assay, CCRF-CEM. Particulars: Homo sapiens, 48 or 72 h, read-out: Cell line inhibition of growth GI50 CCRF-CEM. It is filed as cell-based. Here is the method: as §2
For orientation: Tetrazolium dyes change colour on reduction, which living cells bring about.

Experiment [5] concerns MCF7. As to the kind of experiment: MTT cell growth assay, MCF7. It is filed as cell-based. Particulars: Homo sapiens, 48 or 72 h, read-out: Cell line inhibition of growth GI50 MCF7. Here is the method: as §2
Experiment [6] concerns the target T532C-Cdc48 (Saccharomyces cerevisiae, UniProt P25694, T532C). As to the kind of experiment: In vitro ATP hydrolysis (malachite green ATPase assay), T532C-Cdc48. Format: biochemical, yeast. The protocol: Compounds were tested for their ability to inhibit the ATPase activity of purified wild type murine p97 and T532C-Cdc48, a mutant of yeast Cdc48 in which the residue analogous to cysteine 522, threonine 532, was converted to cysteine.
as §1

The subject of experiment [7] is MDAMB-231. Nature of the experiment: MTT cell growth assay, MDAMB-231. Format: cell-based. To be noted: Homo sapiens, MDA-MB-231, 48 or 72 h, read-out: Cell line inhibition of growth GI50 MDAMB-231. The protocol: as §2
The test system of experiment [8] is 13 different cell lines. As to the kind of experiment: MTT cell growth assay, summary across 13 different cell lines. It is filed as cell-based. To be noted: read-out: 50% inhibition of growth (GI50) across the 13 different cell lines; range across 13 cell lines. Here is the method:
as §2
Data for the assay with MCF-7 cells and HeLa cells is shown in FIG. 21 and FIG. 22, respectively. […] Thus, compound 2 blocks p97-dependent processes in cells and also blocks the proliferation of cancer cell lines, illustrating its potential utility as an anti-proliferative drug to treat cancer.

Experiment [9] deals with RPMI8226. Nature of the experiment: MTT cell growth assay, RPMI8226. Particulars: Homo sapiens, RPMI-8226, 48 or 72 h, read-out: Cell line inhibition of growth GI50 RPMI8226. It is filed as cell-based. The protocol: as §2

Hamster NSF, sequence (P18708 whole entry): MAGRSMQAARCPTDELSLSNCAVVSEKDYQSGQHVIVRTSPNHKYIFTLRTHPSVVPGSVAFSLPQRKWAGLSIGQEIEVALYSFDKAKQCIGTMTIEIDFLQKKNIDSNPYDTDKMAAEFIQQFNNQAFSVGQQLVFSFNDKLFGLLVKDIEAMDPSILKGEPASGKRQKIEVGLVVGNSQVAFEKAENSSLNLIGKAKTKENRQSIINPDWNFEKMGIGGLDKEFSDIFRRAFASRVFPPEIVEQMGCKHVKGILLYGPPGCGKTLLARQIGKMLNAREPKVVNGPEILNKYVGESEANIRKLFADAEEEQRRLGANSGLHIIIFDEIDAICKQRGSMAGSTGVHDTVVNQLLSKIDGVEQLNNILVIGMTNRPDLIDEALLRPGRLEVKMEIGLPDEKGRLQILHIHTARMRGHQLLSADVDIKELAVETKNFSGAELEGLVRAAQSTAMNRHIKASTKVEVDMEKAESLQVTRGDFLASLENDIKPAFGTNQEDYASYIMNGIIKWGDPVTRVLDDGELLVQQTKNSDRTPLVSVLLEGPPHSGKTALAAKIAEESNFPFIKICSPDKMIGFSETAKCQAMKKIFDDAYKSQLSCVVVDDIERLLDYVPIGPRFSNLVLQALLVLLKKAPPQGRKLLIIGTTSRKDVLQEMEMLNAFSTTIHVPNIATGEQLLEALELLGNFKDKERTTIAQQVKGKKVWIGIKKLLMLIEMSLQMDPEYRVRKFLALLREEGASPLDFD
T532C-Cdc48, sequence (P25694 whole entry T532C): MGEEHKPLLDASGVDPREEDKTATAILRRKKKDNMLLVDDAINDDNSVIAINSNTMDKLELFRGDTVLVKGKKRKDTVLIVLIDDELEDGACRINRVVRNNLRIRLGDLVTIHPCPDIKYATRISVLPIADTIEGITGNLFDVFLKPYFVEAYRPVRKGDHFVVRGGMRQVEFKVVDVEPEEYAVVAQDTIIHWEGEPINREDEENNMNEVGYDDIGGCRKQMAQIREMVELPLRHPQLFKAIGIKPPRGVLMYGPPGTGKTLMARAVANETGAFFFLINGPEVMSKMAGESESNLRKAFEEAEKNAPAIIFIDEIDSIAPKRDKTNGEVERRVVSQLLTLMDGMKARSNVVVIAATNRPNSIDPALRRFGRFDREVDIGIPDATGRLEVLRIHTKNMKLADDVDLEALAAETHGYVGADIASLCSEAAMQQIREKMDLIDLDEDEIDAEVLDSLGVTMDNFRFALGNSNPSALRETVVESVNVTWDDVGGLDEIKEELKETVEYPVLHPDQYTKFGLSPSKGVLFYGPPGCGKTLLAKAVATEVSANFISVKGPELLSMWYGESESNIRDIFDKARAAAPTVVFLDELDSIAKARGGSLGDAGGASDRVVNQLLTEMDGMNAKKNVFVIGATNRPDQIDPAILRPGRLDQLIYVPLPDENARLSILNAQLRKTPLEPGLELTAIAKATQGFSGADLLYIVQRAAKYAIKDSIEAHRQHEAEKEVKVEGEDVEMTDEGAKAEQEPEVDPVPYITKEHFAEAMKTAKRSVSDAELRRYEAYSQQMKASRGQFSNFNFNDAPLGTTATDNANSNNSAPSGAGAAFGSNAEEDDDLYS

As for `C=CC(=O)Nc1ncnc2c1c(-c1ccccc1)nn2C(C)(C)C` [Compound 2], the IC50 in experiment [1] (20-minute preincubation) worked out at 105 ± 31 µM; in experiment [6], 14 ± 5 µM. For the same compound, the “NSF less sensitive than p97” value in experiment [1] (NSF vs p97) is reported as “more than 100 fold”. In addition, the GI50 was 17 ± 10 µM in experiment [2]; 2.4 ± 1.2 µM in [3]; 1.6 ± 0.8 µM in [4]; 0.5 ± 0.1 µM in experiment [5]; 1.7 ± 0.3 µM in experiment [7]; 0.4 to 5.1 µM in experiment [8]. For the same compound, in experiment [9], the 50% growth inhibitory concentration (GI50) was found to be 0.4 ± 0.1 µM. In addition, the “increase in sensitivity of yeast Cdc48 on introduction of cysteine in place of threonine 532” value in [6] (T532C-Cdc48 vs yeast Cdc48) is about 30 fold.
